For one data set, the system named is P388 leukemia cells. In words: In vivo antitumor activity against P388 leukemia. Further details: species or system mice. How it is done:
Male CDF1 mice (4 weeks old) were inoculated intraperitoneally with P388 leukemia cells (1×10^6 cells/body) on day 0. […] Each group consisted of six mice. A T/C (%) was calculated according to the following formula:
T/C (%)=[(mean number of survival days of treated group)/(mean number of survival days of control group)]×100

In data set [1] the test system is P388 murine leukemia cells. Briefly: Cytotoxic effects of the phenylahistin enantiomers (Example 8). The data set is classed as cell-based. To be noted: Mus musculus, (−) 92.2% e.e., (+) 97.8% e.e. An excerpt:
The cytotoxic effects of the enantiomers of phenylahistin on P388 murine leukemia cells were examined. […] Judging from the content of (−)-phenylahistin in (+)-phenylahistin, (+)-phenylahistin was considered to have relatively low cytotoxicity to P388 cells.

The next data set relates to P388 cells. Briefly: Cell cycle progression of P388, flow cytometer. The data set is classed as cell-based, murine. To be noted: 1×10^−6 M, 8-hour incubation. How it is done: The effect of phenylahistin on the cell cycle progression of P388 cells was also investigated using a flow cytometer, as described in Krishan, A., J. Cell Biol. (1975) 66, 188-193. P388 cells in the log growth phase were seeded into flasks and cultured for 14 hours, and then various concentrations of phenylahistin were added to each flask. After an 8-hour incubation, the cells were harvested and fixed with 50% MeOH at −20° C. overnight. The cells were washed with 30% MeOH and then with 10 mM PBS, and treated with 50 :g/ml propidium iodide at 4° C. for 2 hours. DNA histograms were obtained using a flow cytometer (Cyto ACE-300:JASCO).
For orientation: A flow cytometer gives signals particle by particle.

Data set [2] concerns A549 cells (human lung carcinoma). Briefly: A549 proliferation, Alamar Blue assay. The data set is classed as cell-based. The procedure: Exponentially growing A549 cells were seeded into 96-well tissue culture plates (2×10^3 cells/100 μl/well) and cultured for 16 hours. (−)-PLH or CLC was then added to each well at various concentrations, and the cells were cultured for an additional 48 hours. Live cells were counted using Alamar Blue™ from BioSource International (Camarillo, Calif.) as described in Ahmed, S. A., J. Immunol. Methods, (1994), 170, 211-24.
(In general: The colour change of resazurin is a common sign of viable cells or microbes.)

In the next data set the test system is A549 cells. Briefly: Mitotic index. The data set is classed as cell-based, human. How it is done:
Exponentially growing A549 cells were seeded into 96-well tissue culture plates (2×10^3 cells/100:1/well) and cultured for 16 hours. (−)-PLH or CLC was then added to each well at various concentrations, and the plates were incubated for an additional 24 hours. The number of cells in mitosis (round cells) and total cells in eight randomly selected fields were counted under a phase-contrast microscope. In a series of preliminary studies, it was confirmed that the round cells in this condition were cells in mitosis by using flow cytometry and Hoechst 33258 staining. The mitotic index represented the percentage of round cells among the total number of cells in the eight selected fields.

The test system of data set [3] is phosphocellulose-purified tubulin. Briefly: Polymerization of purified tubulin (turbidity). It is filed as biochemical, bovine. The procedure:
Microtubule protein was prepared from bovine brain tissue by two cycles of assembly and disassembly according to the method of Tiwari, S. C. et al. Anal. Biochem, (1993), 215, 96-103. Tubulin was purified from microtubule protein by phosphocellulose chromatography see Algaier, J. et al. Biochim. Biophys. Acta, (1988), 954, 235-43, and tubulin purity was evaluated by polyacrylamide gel electrophoresis, as in Laemmli, U.K., Nature, (1970), […], 680-85. […] Protein concentrations were determined using the Coomassie® Protein Assay Reagent from Pierce (Rockford, Ill.).
Polymerization of microtubule protein was monitored by an increase in turbidity at 37° C. in microtubule assembly buffer containing 100 mM MES, 0.5 mM MgCl2, 1 mM EGTA and 1 mM GTP. See Johnson, K. A. et al., J. Mol. Biol., (1977), 117, 1-31. Polymerization of purified tubulin was measured using the same method except the microtubule assembly buffer contained 4 M glycerol. See Lee, J. C. et al., Biochemistry, (1975), 14, 5183-87. Microtubule protein and tubulin polymerization was initiated by a temperature shift from 0° C. to 37° C. and turbidity was measured on a DU-20 thermocontrolled spectrophotometer from Beckman (Fullerton, Calif.) at 360 nm. Drugs were dissolved in dimethyl sulfoxide (DMSO), which was used in all experiments at a final concentration of 2% (v/v).

A further data set has as its system bovine brain tubulin. Briefly: [^3H]VLB binding competition assay. To be noted: DEAE-cellulose filter method; listed as (−)-PLH.
The subject of another data set is C. glabrata. Briefly: Antifungal susceptibility testing, broth dilution (NCCLS M38-A). The data set is classed as cell-based, Candida glabrata. The conditions noted are these: Nakaseomyces glabratus; C. glabrata; 80% reduction in turbidity; read-out: MIC. The procedure: (§1) Antifungal susceptibility testing was accomplished according to the methods outlined in the National Committee for Clinical Laboratory Standards, M38-A “Reference Method for Broth Dilution Antifungal Susceptibility Testing of Conidium-Forming Filamentous Fungi; Approved Standard.” This includes testing in RPMI-1640 with glutamine and without bicarbonate, an inoculum size of 0.4-5×10^4, and incubation at 30 or 35° C. for 48 hours. […] Drug concentrations were 0.03-16 μg/ml for the investigational compounds, 0.015-8 μg/ml for itraconazole and griseofulvin.
(§2) The minimum lethal concentration (MLC) was determined by plating […] from the MIC concentration and each concentration above the MIC. […] When a MIC was obtained, a minimum fungicidal concentration (MFC) was determined to assess the fungistatic/fungicidal nature of the compound. […] The compound is scored as fungistatic if the cells are able to resume growth and fungicidal if no regrowth is possible because the compound had killed the organisms.

The next data set concerns A. fumigatus isolate #1. The description is as above. The data set is classed as cell-based. To be noted: Aspergillus fumigatus, 80% reduction in turbidity. How it is done: as §1, §2
The test system of another data set is A. fumigatus isolate #2. The data set is described as above. It is filed as cell-based. The conditions noted are these: Aspergillus fumigatus, 80% reduction in turbidity. How it is done: as §1, §2
Setting [4] is: 4.2 mg/kg (1 mg/kg calculated (−)-PLH) i.p. daily days 1 to 12.
The mark [5] stands for this setting: 12.5 mg/kg (3 mg/kg calculated (−)-PLH) i.p. daily days 1 to 12.
Setting [6] is: 42 mg/kg (10 mg/kg calculated (−)-PLH) i.p. daily days 1 to 12.
Setting [7] is: 125 mg/kg (30 mg/kg calculated (−)-PLH) i.p. daily days 1 to 12.

A word on the T/C: it is the ratio of treated to control. The MIC is the least concentration at which growth counts as inhibited.

Entries after “also recorded” stand apart in the source; their conditions may differ.

On to `C=CC(C)(C)c1[nH]cnc1/C=C1\NC(=O)[C@H](Cc2ccccc2)NC1=O` (racemic) [PLH, phenylahistin], for which the “Mean Body weight on day 12” value in the data set on P388 leukemia cells (setting [4]) is recorded as 25.3 ± 0.4 g; in the data set on P388 leukemia cells (setting [5]) it was 24.1 ± 0.6 g; in the data set on P388 leukemia cells (setting [6]), 23.0 ± 0.5 g; in the data set on P388 leukemia cells (setting [7]) it was 22.3 ± 0.3 g. The “Mean Number of Survival days” value in the data set on P388 leukemia cells (setting [4]) is reported as 14.6 ± 0.6 days; in the data set on P388 leukemia cells (setting [5]) it was 14.6 ± 0.5 days; in the data set on P388 leukemia cells (setting [6]), 16.1 ± 0.8 days; in the data set with P388 leukemia cells (setting [7]), 18.9 ± 0.9 days. In addition, the “T/C (%)” value is 117% in the data set with P388 leukemia cells (setting [4]), 117% in the data set on P388 leukemia cells (setting [5]), 129% with P388 leukemia cells (setting [6]) and 151% with P388 leukemia cells (setting [7]). The “increases in body weight seen in the control group” value with P388 leukemia cells (daily administrations of PLH 41.5 and 124 mg/kg) is listed as “suppressed”. Besides, the T/C was 129% in the data set with P388 leukemia cells (daily dosage of 41.5 mg/kg for 12 days); 151% in the data set with P388 leukemia cells (daily dosage of 124 (30) mg/kg for 12 days); 115% in the data set on P388 leukemia cells (single administration, 415 mg/kg PLH [(−)-PLH 100 mg/kg]). For the same compound, the tremorgenic side effects entry with P388 leukemia cells (highest dose (124 mg/kg/day)) was “did not induce such side effects”.
In the case of `C=CC(C)(C)c1[nH]cnc1/C=C1\NC(=O)[C@H](Cc2ccccc2)NC1=O` [(−)-phenylahistin], the IC50 was 350 nM in data set [1] and 300 nM in [2] (Homo sapiens, A549, read-out: 50% inhibitory concentration (IC50), proliferation of A549 cells, 48 hours). Moreover, the “cell cycle inhibitory activity (G2/M)” value was “exhibited cell cycle inhibitory activity” with P388 cells and “completely inhibits the cell cycle progression” with P388 cells (listed as (−)-PLH). Moreover, the “fold less potent than CLC, A549 proliferation” value in [2] (versus CLC under the assay conditions) came out at 5 fold. The mitotic index entry in the data set with A549 cells (24 hours) is recorded as “increased”. For the same compound, the “reversibility of the anti-mitotic effect” value with A549 cells (after washing and replacement with fresh medium) is given as “reversible”. Also, the “inhibition of tubulin polymerization compared with CLC” value in data set [3] is “as effective as CLC”. Also, the “effect on [^3H]VLB binding to tubulin” value in the data set with bovine brain tubulin was “not inhibited; also recorded: slightly enhanced”. Besides, the values for the MIC with C. glabrata, with A. fumigatus isolate #1 and against A. fumigatus isolate #2 were over 70 µg/mL, over 16 µg/mL and over 16 µg/mL, respectively.

The values are drawn from patent US20040102454A1, “Phenylahistin and the phenylahistin analogs, a new class of anti-tumor compounds” (priority 1998, published 2004).
